Values of other authors, collected in PMC10640708 (ACS chemical biology, 2018).

Target: calcium sensing receptor (CaSR)
Details: read-out: EC50 of CaSR activation; Ca2+ alone

For [Ca+2] [Ca^2+], the EC50 is listed as roughly 4 mM.
